Data as given in patent publication US9133204B2, “5-membered heterocyclic amides and related compounds” (H. Lundbeck A/S, priority 2007, dated 2015).

Biological target: T1, P2X7 receptor (Homo sapiens, UniProt Q99572)
T1 construct: host or cells: SH-SY5Y
T1 sequence (Q99572 1-595): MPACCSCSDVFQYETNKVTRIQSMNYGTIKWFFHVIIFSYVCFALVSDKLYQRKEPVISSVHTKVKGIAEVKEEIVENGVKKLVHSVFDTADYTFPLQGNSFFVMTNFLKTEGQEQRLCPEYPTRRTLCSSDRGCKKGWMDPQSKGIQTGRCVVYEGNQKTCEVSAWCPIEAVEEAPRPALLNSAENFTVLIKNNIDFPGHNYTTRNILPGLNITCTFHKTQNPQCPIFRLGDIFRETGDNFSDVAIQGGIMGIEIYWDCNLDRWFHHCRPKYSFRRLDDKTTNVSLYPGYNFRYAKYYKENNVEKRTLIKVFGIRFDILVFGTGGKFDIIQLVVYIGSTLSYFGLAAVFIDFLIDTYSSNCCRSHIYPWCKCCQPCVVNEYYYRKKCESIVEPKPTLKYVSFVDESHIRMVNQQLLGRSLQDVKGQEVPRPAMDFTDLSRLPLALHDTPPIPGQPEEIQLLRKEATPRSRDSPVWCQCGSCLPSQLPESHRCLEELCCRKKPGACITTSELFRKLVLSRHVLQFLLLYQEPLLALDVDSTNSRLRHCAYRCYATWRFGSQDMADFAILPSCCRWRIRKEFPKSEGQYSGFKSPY
Experiment: High throughput P2X7 calcium mobilization assay (Example 4A)
Type: cell-based
Details: SH-SY5Y cells; 50% decrease in fluorescence response of cells exposed to 80 μM BzATP; Table I
How it was run: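 Calcium mobilization read by FLIPR as peak fluorescence over 2 min after adding BzATP to a final 80 μM (about EC50). Beforehand, Fluo-4 AM-loaded SH-SY5Y cells sat 1 h at room temperature with compound at 1–2500 nM in pH 7.4 sucrose/HEPES buffer; signal minus no-agonist wells.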

IC50, ≤ 2000 nM:
CC(C)CC(CNC(=O)c1cn(-c2ncccn2)nc1C(F)(F)F)c1ccccc1 (stereo not shown) [Compound 209, N-(4-methyl-2-phenylpentyl)-1-pyrimidin-2-yl-3-(trifluoromethyl)-1H-pyrazole-4-carboxamide]
O=C(NCC(CC1CCCC1)c1ccccc1)c1cn(-c2ncccn2)nc1C(F)(F)F (stereo not shown) [Compound 210, N-(3-cyclopentyl-2-phenylpropyl)-1-pyrimidin-2-yl-3-(trifluoromethyl)-1H-pyrazole-4-carboxamide]
O=C(NCC(c1ccccc1)C1CCCCC1)c1cn(-c2ncccn2)nc1C(F)(F)F (stereo not shown) [Compound 211, N-(2-cyclohexyl-2-phenylethyl)-1-pyrimidin-2-yl-3-(trifluoromethyl)-1H-pyrazole-4-carboxamide]
CCCCCCC(CNC(=O)c1cn(-c2ncccn2)nc1C(F)(F)F)c1ccccc1 (stereo not shown) [Compound 212, N-(2-phenyloctyl)-1-pyrimidin-2-yl-3-(trifluoromethyl)-1H-pyrazole-4-carboxamide]
O=C(NCC(CC1CCCCC1)c1ccccc1)c1cn(-c2ncccn2)nc1C(F)(F)F (stereo not shown) [Compound 213, N-(3-cyclohexyl-2-phenypropyl)-1-pyrimidin-2-yl-3-(trifluoromethyl)-1H-pyrazole-4-carboxamide]
O=C(NCC(CCC1CCCCC1)c1ccccc1)c1cn(-c2ncccn2)nc1C(F)(F)F (stereo not shown) [Compound 214, N-(4-cyclohexyl-2-phenylbutyl)-1-pyrimidin-2-yl-3-(trifluoromethyl)-1H-pyrazole-4-carboxamide]
CC(CCNC(=O)c1cn(-c2ncccn2)nc1C(F)(F)F)c1ccccc1 (stereo not shown) [Compound 215, N-(3-phenylbutyl)-1-pyrimidin-2-yl-3-(trifluoromethyl)-1H-pyrazole-4-carboxamide]
CC1CC(NC(=O)c2cn(-c3ncccn3)nc2C(F)(F)F)CC(C)(C)C1 (stereo not shown) [Compound 216, 1-pyrimidin-2-yl-3-(trifluoromethyl)-N-(3,3,5-trimethylcyclohexyl)-1H-pyrazole-4-carboxamide]
O=C(NC1C2CC3CC(C2)CC1C3)c1cn(-c2ncccn2)nc1C(F)(F)F (stereo not shown) [Compound 217, N-adamantan-2-yl-1-pyrimidin-2-yl-3-(trifluoromethyl)-1H-pyrazole-4-carboxamide]
O=C(NCCc1ccccc1Br)c1cn(-c2ncccn2)nc1C(F)(F)F [Compound 218, N-[2-(2-bromophenyl)ethyl]-1-pyrimidin-2-yl-3-(trifluoromethyl)-1H-pyrazole-4-carboxamide]
CCc1nc(-c2ncccn2)sc1C(=O)NCC1(c2cccnc2)CCCCC1 [Compound 219, 4-ethyl-N-[(1-pyridin-3-ylcyclohexyl)methyl]-2-pyrimidin-2-yl-1,3-thiazole-5-carboxamide]
CCc1nc(-c2ncccn2)sc1C(=O)NCC(CC(C)C)c1ccc(C(F)(F)F)cc1 (stereo not shown) [Compound 220, 4-ethyl-N-{4-methyl-2-[4-(trifluoromethyl)phenyl]pentyl}-2-pyrimidin-2-yl-1,3-thiazole-5-carboxamide]
CCc1nc(-c2ncccn2)sc1C(=O)NCc1ccc(F)cc1Cl [Compound 231, N-(2-chloro-4-fluorobenzyl)-4-ethyl-2-pyrimidin-2-yl-1,3-thiazole-5-carboxamide]
CCc1nc(-c2ncccn2)sc1C(=O)NC1CC(C)CC(C)(C)C1 (stereo not shown) [Compound 236, 4-ethyl-2-pyrimidin-2-yl-N-(3,3,5-trimethylcyclohexyl)-1,3-thiazole-5-carboxamide]
CCc1nc(-c2ncccn2)sc1C(=O)NCC12CC3CC(CC(C3)C1)C2 [Compound 247, N-(adamantan-1-ylmethyl)-4-ethyl-2-pyrimidin-2-yl-1,3-thiazole-5-carboxamide]
CCc1nc(-c2ncccn2)sc1C(=O)NC[C@@H]1CCC2CC1C2(C)C (stereo partly drawn) [Compound 248, N-{[(2R)-6,6-dimethylbicyclo[3.1.1]hept-2-yl]methyl}-4-ethyl-2-pyrimidin-2-yl-1,3-thiazole-5-carboxamide]
CCc1nc(-c2ncccn2)sc1C(=O)NCC(CC(C)C)c1ccc(Cl)cc1 (stereo not shown) [Compound 249, N-[2-(4-chlorophenyl)-4-methylpentyl]-4-ethyl-2-pyrimidin-2-yl-1,3-thiazole-5-carboxamide]
CCc1nc(-c2ncccn2)sc1C(=O)NCC1(c2ccc(OC)cc2)CCCCC1 [Compound 250, 4-ethyl-N-{[1-(4-methoxyphenyl)cyclohexyl]methyl)-2-pyrimidin-2-yl-1,3-thiazole-5-carboxamide]
CCc1nc(-c2ncccn2)sc1C(=O)NCC(CC(C)C)c1ccccc1 (stereo not shown) [Compound 258, 4-ethyl-N-(4-methyl-2-phenylpentyl)-2-pyrimidin-2-yl-1,3-thiazole-5-carboxamide]
CCc1nc(-c2ncccn2)sc1C(=O)NCC1(c2ccc(OC)cc2)CCCC1 [Compound 269, 4-ethyl-N-{[1-(4-methoxyphenyl)cyclopentyl]methyl}-2-pyrimidin-2-yl-1,3-thiazole-5-carboxamide]
CCc1nc(-c2ncccn2)sc1C(=O)NCC(CC(C)C)c1ccc(C)cc1 (stereo not shown) [Compound 275, 4-ethyl-N-[4-methyl-2-(4-methylphenyl)pentyl]-2-pyrimidin-2-yl-1,3-thiazole-5-carboxamide]
CCc1nc(-c2ncccn2)sc1C(=O)NCC1(c2ccc(Cl)cc2)CCCCC1 [Compound 276, N-{[1-(4-chlorophenyl)cyclohexyl]methyl}-4-ethyl-2-pyrimidin-2-yl-1,3-thiazole-5-carboxamide]
CCCC(CNC(=O)c1sc(-c2ncccn2)nc1CC)c1ccc(Cl)cc1 (stereo not shown) [Compound 277, N-[2-(4-chlorophenyl)pentyl]-4-ethyl-2-pyrimidin-2-yl-1,3-thiazole-5-carboxamide]
COc1ccc(C2(CNC(=O)c3sc(-c4ncccn4)nc3C(F)(F)F)CCCC2)cc1 [Compound 285, N-{[1-(4-methoxyphenyl)cyclopentyl]methyl}-2-pyrimidin-2-yl-4-(trifluoromethyl)-1,3-thiazole-5-carboxamide]
O=C(NCC(c1ccc(Cl)cc1)N1CCCC1)c1sc(-c2ncccn2)nc1C(F)(F)F (stereo not shown) [Compound 286, N-[2-(4-chlorophenyl)-2-pyrrolidin-1-ylethyl]-2-pyrimidin-2-yl-4-(trifluoromethyl)-1,3-thiazole-5-carboxamide]
O=C(NCC1(c2ccc(Cl)nc2)CCCC1)c1sc(-c2ncccn2)nc1C(F)(F)F [Compound 287, N-{[1-(6-chloropyridin-3-yl)cyclopentyl]methyl}-2-pyrimidin-2-yl-4-(trifluoromethyl)-1,3-thiazole-5-carboxamide]
CCc1nc(-c2ncccn2)sc1C(=O)NCC1(c2ccc(Cl)nc2)CCCC1 [Compound 288, N-{[1-(6-chloropyridin-3-yl)cyclopentyl]methyl}-4-ethyl-2-pyrimidin-2-yl-1,3-thiazole-5-carboxamide]
Cc1nc(-c2ncccn2)sc1C(=O)NCC1(c2cccnc2)CCCCC1 [Compound 289, 4-methyl-N-[(1-pyridin-3-ylcyclohexyl)methyl]-2-pyrimidin-2-yl-1,3-thiazole-5-carboxamide]
Cc1nc(-c2ncccn2)sc1C(=O)NCC(CC(C)C)c1ccc(C(F)(F)F)cc1 (stereo not shown) [Compound 290, 4-methyl-N-{4-methyl-2-[4-(trifluoromethyl)phenyl]pentyl}-2-pyrimidin-2-yl-1,3-thiazole-5-carboxamide]
O=C(NCC1(c2ccc(Cl)nc2)CCCCC1)c1sc(-c2ncccn2)nc1C(F)(F)F [Compound 291, N-{[1-(6-chloropyridin-3-yl)cyclohexyl]methyl}-2-pyrimidin-2-yl-4-(trifluoromethyl)-1,3-thiazole-5-carboxamide]
CC(C)CC(CNC(=O)c1sc(-c2ncccn2)nc1C(F)(F)F)c1ccc(Cl)nc1 (stereo not shown) [Compound 292, N-[2-(6-chloropyridin-3-yl)-4-methylpentyl]-2-pyrimidin-2-yl-4-(trifluoromethyl)-1,3-thiazole-5-carboxamide]
O=C(NCC1(c2cccnc2)CCCCC1)c1sc(-n2ccccc2=O)nc1C(F)(F)F [Compound 293, 2-(2-oxopyridin-1(2H)-yl)-N-[(1-pyridin-3-ylcyclohexyl)methyl]-4-(trifluoromethyl)-1,3-thiazole-5-carboxamide]
O=C(NCC1(c2cccnc2)CCCCC1)c1sc(N2CCOCC2)nc1C(F)(F)F [Compound 294, 2-morpholin-4-yl-N-[(1-pyridin-3-ylcyclohexyl)methyl]-4-(trifluoromethyl)-1,3-thiazole-5-carboxamide]
O=C(NCC1(c2cccnc2)CCCCC1)c1sc(N2CCC(O)CC2)nc1C(F)(F)F [Compound 295, 2-(4-hydroxypiperidin-1-yl)-N-[(1-pyridin-3-ylcyclohexyl)methyl]-4-(trifluoromethyl)-1,3-thiazole-5-carboxamide]
